# The NIST ThermoML archive (doi:10.1021/je700693z)
# ± gives the expanded uncertainty stated by the source.
# Legend:
# [1] = Molar enthalpy of transition or fusion; conditions: Crystal; DSC
# [2] = for mass density: 298.15 K, 101.33 kPa, Liquid, Vibrating tube method
Compound,Molar enthalpy of transition or fusion [1] [kcal/mol],mass density [2] [kg/m3],"Normal melting temperature ([2]; Crystal, DTA) [°C]",Glass transition temperature ([2]; DTA) [°C]
"CCn1cc[n+](CC)c1.O=S(=O)([N-]S(=O)(=O)C(F)(F)F)C(F)(F)F [1,3-diethylimidazolium bis[(trifluoromethyl)sulfonyl]imide]",4.88 ± 0.191,1476 ± 15,-10.5 ± 0.4,-67.2 ± 3
CCCC[n+]1ccn(CC)c1.O=S(=O)([N-]S(=O)(=O)C(F)(F)F)C(F)(F)F,–,1401.8 ± 14,–,-92.2 ± 3
CCCC[n+]1ccn(CC)c1.F[P-](F)(F)(F)(F)F [1-butyl-3-ethylimidazolium hexafluorophosphate],–,1327.6 ± 12,–,-80.2 ± 3
CCCCCCn1cc[n+](CC)c1.O=S(=O)([N-]S(=O)(=O)C(F)(F)F)C(F)(F)F [1-hexyl-3-ethylimidazolium bis(trifluoromethylsulfonyl)imide],–,1345.4 ± 13,–,-88.3 ± 3
